Assay results taken from US10952415B2, “Prostate cancer cell lines, gene signatures and uses thereof” (priority 2011, dated 2021).

Columns and labels:
PEC lines = assay: Experimental metastasis assay: intracardiac injection of Luc2-Tomato-Red PEC lines, bioluminescence, X-ray and F-18-NaF imaging; format: in vivo, FVB mice
PEC-Src line = assay: Three-dimensional (Matrigel) invasion assay; format: cell-based, murine; conditions: 10 ug/ml osteopontin or 15 ng/ml CCL5 as chemoattractant in upper chamber, three days
Description: The three-dimensional invasion assay was performed as previously reported. […] The transwell was incubated at 37° C. overnight to allow the collagen to solidify. 30,000 cells were then seeded on the bottom of the transwell membrane and allowed to attach. Serum-free growth medium was placed into the bottom chamber, while 10 ug/ml osteopontin (R&D System), or 15 ng/ml CCL5 (R&D System), or 10% FBS was used as a chemo attractant in the medium of the upper chamber. The cells were then chemo attracted across the filter through the collagen above for three days. Cells were fixed in 4% formaldehyde, permeabilized with 0.2% Triton-X in PBS and then stained with […] propidium iodide (PI) for 2 h. Fluorescence was analyzed by confocal z sections (one section every […]) at 10× magnification from the bottom of the filter using a Zeiss LSM 510 Meta inverted confocal microscope at the Kimmel Cancer Center Bioimaging Facilit.
For the comparison to tissue, the in vivo tumor gene expression in the oncogene transformed PEC was compared with the expression in vivo in the dorsolateral ventral prostate of mice with the same strain. […] Upregulation of the receptor ligands CCL2, CCL7, and CCL8 was observed (2- to 3-fold). CCL7, CCL8 and CCL5 are ligands for CCR5, CCL8 and CCL5 for CCR1 (FIG. 16H). […]

[1] = Maraviroc 8 mg/kg oral vs control, FVB mice, 2 weeks after intracardiac injection of PEC lines, N=8 per group

Maraviroc
reduction of bony metastasis (lower limb bony mass) (PEC lines; [1]): > 50% | reduction of total body metastatic burden (photon flux) (PEC lines; [1]): > 50% | effect on metastasis (result in words) (PEC lines; daily oral CCR5 antagonist, bony / spinal osteolytic metastasis in mice): reduction in metastasis | reduction of spine metastasis (PEC lines; daily oral treatment, F-18-NaF imaging correlated with X-ray, FVB mice): > 90%

osteopontin [OPN]
Matrigel invasion of the PEC-Src line (result in words) (PEC-Src line): enhanced PEC invasiveness into matrigel

B1: CCR5: printed CCR5, probably CCL5 (R&D System), the CCR5 ligand used as chemoattractant (protein, UniProt P13501 24-91, looked up)
C-C motif chemokine 5: SPYSSDTTPCCFAYIARPLPRAHIKEYFYTSGKCSNPAVVFVTRKNRQVCANPEKKWVREYINSLEMS
Matrigel invasion of the PEC-Src line (result in words) (PEC-Src line): enhanced PEC invasiveness into matrigel
